The values below come from ChEMBL document CHEMBL3588844, “Discovery of A-893, A New Cell-Active Benzoxazinone Inhibitor of Lysine Methyltransferase SMYD2” (ACS Med Chem Lett, 2015).

One may read the pIC50 as the negative decadic logarithm of the IC50, by convention in mol/L. The low end stands for a large IC50, the high end for a small IC50. By inhibition is commonly meant the relative decrease from the control value, in per cent.

Test [1] deals with N-lysine methyltransferase SMYD2 (Homo sapiens, UniProt Q9NRG4).
Chain of N-lysine methyltransferase SMYD2 (Q9NRG4 whole entry): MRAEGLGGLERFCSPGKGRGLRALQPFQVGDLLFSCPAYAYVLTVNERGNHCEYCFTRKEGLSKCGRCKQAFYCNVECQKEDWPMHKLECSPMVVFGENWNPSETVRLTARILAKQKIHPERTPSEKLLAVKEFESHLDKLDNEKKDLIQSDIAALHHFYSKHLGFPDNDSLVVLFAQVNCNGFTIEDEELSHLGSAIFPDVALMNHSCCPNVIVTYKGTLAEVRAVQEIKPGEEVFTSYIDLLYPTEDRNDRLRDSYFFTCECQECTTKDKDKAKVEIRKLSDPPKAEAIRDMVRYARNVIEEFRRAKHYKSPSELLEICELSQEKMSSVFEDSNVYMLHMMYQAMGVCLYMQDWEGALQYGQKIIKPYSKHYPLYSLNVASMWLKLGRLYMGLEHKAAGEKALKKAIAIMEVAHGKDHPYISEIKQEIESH
The target of test [2] is Histone-lysine N-methyltransferase, H3 lysine-79 specific (Homo sapiens) (UniProt Q8TEK3). Nature of the test: Inhibition of DOT1L (unknown origin) at 1 uM after 1 hr by filter-based assay.
Test [3] deals with Protein arginine N-methyltransferase 3 (Homo sapiens) (UniProt O60678). Nature of the test: Inhibition of PRMT3 (unknown origin) assessed as incorporation of tritium labeled methyl group from [3H]-SAM to substrate at 10 to 50 uM after 1 hr by scintillation proximity assay relative to control. On the technique in general: Scintillation proximity formats need no separation of bound from free tracer.
Chain of Protein arginine N-methyltransferase 3 (Homo sapiens) (O60678 2-531 limits assumed): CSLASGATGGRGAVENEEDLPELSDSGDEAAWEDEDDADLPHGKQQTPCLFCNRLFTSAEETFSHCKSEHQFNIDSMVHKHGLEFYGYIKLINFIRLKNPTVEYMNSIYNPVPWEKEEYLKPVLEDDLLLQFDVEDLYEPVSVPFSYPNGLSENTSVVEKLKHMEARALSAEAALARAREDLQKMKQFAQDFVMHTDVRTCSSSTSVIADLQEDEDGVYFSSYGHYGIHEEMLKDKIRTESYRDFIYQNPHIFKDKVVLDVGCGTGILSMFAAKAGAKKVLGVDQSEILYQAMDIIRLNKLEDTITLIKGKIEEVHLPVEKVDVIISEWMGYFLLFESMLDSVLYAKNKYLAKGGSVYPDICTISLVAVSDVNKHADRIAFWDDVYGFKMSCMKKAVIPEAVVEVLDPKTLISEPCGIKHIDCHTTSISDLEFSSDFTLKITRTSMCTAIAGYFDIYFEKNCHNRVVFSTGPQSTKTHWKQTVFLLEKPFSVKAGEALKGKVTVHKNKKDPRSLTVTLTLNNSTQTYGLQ

Test [4] addresses Histone-lysine N-methyltransferase SMYD3 (Homo sapiens) (UniProt Q9H7B4). The experiment in a line: Inhibition of SMYD3 (unknown origin) assessed as incorporation of tritium labeled methyl group from [3H]-SAM to substrate at 1 uM after 1 hr by scintillation proximity assay relative to control.
Test [5] deals with DNA (cytosine-5)-methyltransferase 1 (Homo sapiens) (UniProt P26358). The experiment in a line: Inhibition of DNMT1 (unknown origin) assessed as incorporation of tritium labeled methyl group from [3H]-SAM to dsDNA substrate at 1 uM after 1 hr by scintillation proximity assay relative to control.
Test [6] concerns the target Protein arginine N-methyltransferase 6 (Homo sapiens) (UniProt Q96LA8). The experiment in a line: Inhibition of PRMT6 (unknown origin) assessed as incorporation of tritium labeled methyl group from [3H]-SAM to substrate at 1 uM after 1 hr by scintillation proximity assay relative to control.
Test [7] has as its target Protein arginine N-methyltransferase 8 (Homo sapiens) (UniProt Q9NR22). The experiment in a line: Inhibition of PRMT8 (unknown origin) assessed as incorporation of tritium labeled methyl group from [3H]-SAM to substrate at 1 uM after 1 hr by scintillation proximity assay relative to control.
For test [8], the target named is Protein arginine N-methyltransferase 7 (Homo sapiens) (UniProt Q9NVM4). The experiment in a line: Inhibition of PRMT7 (unknown origin) assessed as incorporation of tritium labeled methyl group from [3H]-SAM to substrate at 10 to 50 uM after 1 hr by scintillation proximity assay relative to control.
Chain of Protein arginine N-methyltransferase 7 (Homo sapiens) (Q9NVM4 whole entry): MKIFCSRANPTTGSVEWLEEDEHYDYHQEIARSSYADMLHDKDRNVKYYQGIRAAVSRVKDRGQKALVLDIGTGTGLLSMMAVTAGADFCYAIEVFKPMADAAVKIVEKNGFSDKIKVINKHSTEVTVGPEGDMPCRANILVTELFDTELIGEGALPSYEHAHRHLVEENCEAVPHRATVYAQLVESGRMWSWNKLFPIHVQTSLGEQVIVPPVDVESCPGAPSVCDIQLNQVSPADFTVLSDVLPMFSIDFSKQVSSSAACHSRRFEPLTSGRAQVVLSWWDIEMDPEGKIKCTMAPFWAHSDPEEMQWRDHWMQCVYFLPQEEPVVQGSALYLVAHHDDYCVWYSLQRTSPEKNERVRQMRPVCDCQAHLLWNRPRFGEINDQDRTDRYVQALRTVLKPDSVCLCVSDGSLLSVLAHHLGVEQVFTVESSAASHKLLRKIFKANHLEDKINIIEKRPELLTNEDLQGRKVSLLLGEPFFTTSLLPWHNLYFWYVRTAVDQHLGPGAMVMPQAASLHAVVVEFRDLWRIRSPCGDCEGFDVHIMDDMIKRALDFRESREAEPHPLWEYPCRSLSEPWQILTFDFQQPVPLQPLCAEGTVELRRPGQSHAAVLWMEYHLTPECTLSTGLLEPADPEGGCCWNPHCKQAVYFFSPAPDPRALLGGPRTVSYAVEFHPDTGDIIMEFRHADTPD
Test [9] concerns the target Histone-lysine N-methyltransferase ASH1L (Homo sapiens) (UniProt Q9NR48). The experiment in a line: Inhibition of ASH1L (unknown origin) at 1 uM after 1 hr by filter-based assay.
For test [10], the target named is Histone-lysine N-methyltransferase NSD2 (Homo sapiens) (UniProt O96028). Nature of the test: Inhibition of NSD2 (unknown origin) at 1 uM after 1 hr by filter-based assay.
Test [11] concerns the target Protein arginine N-methyltransferase 3 (Homo sapiens) (UniProt O60678). Nature of the test: Inhibition of PRMT3 (unknown origin) assessed as incorporation of tritium labeled methyl group from [3H]-SAM to substrate at 1 uM after 1 hr by scintillation proximity assay relative to control.
Test [12] has as its target Histone-lysine N-methyltransferase 2A (Homo sapiens) (UniProt Q03164). The experiment in a line: Inhibition of MLL1 trimeric complex (unknown origin) assessed as incorporation of tritium labeled methyl group from [3H]-SAM to substrate at 1 uM after 1 hr by scintillation proximity assay relative to control.
Test [13] has as its target Protein N-lysine methyltransferase METTL21A (Homo sapiens) (UniProt Q8WXB1). The experiment in a line: Inhibition of METTL21A (unknown origin) assessed as incorporation of tritium labeled methyl group from [3H]-SAM to substrate at 1 uM after 1 hr by scintillation proximity assay relative to control.
Test [14] concerns the target Protein N-lysine methyltransferase METTL21D (Homo sapiens) (UniProt Q9H867). The experiment in a line: Inhibition of METTL21D (unknown origin) assessed as incorporation of tritium labeled methyl group from [3H]-SAM to substrate at 1 uM after 1 hr by scintillation proximity assay relative to control.
For test [15], the target named is Histone-lysine N-methyltransferase SUV39H2 (Homo sapiens) (UniProt Q9H5I1). Nature of the test: Inhibition of SUV39H2 (unknown origin) assessed as incorporation of tritium labeled methyl group from [3H]-SAM to substrate at 10 to 50 uM after 1 hr by scintillation proximity assay relative to control.
Chain of Histone-lysine N-methyltransferase SUV39H2 (Homo sapiens) (Q9H5I1 whole entry): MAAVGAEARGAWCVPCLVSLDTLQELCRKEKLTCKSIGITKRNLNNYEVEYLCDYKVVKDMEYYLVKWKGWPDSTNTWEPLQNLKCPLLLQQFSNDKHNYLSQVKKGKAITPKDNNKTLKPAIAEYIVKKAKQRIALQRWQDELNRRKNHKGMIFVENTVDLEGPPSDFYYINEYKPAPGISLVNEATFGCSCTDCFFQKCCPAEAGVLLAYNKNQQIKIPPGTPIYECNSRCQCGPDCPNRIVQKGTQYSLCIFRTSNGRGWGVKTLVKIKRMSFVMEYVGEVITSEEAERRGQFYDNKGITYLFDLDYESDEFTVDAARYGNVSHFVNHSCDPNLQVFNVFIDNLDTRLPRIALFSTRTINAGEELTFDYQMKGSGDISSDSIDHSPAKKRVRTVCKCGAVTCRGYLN
Test [16] concerns the target DNMT3A2/3L complex (Homo sapiens) (UniProt Q9Y6K1+Q9UJW3). Nature of the test: Inhibition of DNMT3A/3L (unknown origin) at 1 uM after 1 hr by filter-based assay. It counts as protein-complex assay.
In test [17] the target is Histone-lysine N-methyltransferase SUV39H2 (Homo sapiens) (UniProt Q9H5I1). The experiment in a line: Inhibition of SUV39H2 (unknown origin) assessed as incorporation of tritium labeled methyl group from [3H]-SAM to substrate at 1 uM after 1 hr by scintillation proximity assay relative to control.
The target of test [18] is Histone-lysine N-methyltransferase, H3 lysine-36 specific (Homo sapiens) (UniProt Q96L73). Nature of the test: Inhibition of NSD1 (unknown origin) at 1 uM after 1 hr by filter-based assay.
Test [19] has as its target Protein arginine N-methyltransferase 7 (Homo sapiens) (UniProt Q9NVM4). Nature of the test: Inhibition of PRMT7 (unknown origin) assessed as incorporation of tritium labeled methyl group from [3H]-SAM to substrate at 1 uM after 1 hr by scintillation proximity assay relative to control.
The target in test [20] is Histone-lysine N-methyltransferase KMT5C (Homo sapiens) (UniProt Q86Y97). Nature of the test: Inhibition of SUV420H2 (unknown origin) at 1 uM after 1 hr by filter-based assay.
Test [21] concerns the target Histone-lysine N-methyltransferase SETDB1 (Homo sapiens) (UniProt Q15047). The experiment in a line: Inhibition of SETDB1 (unknown origin) assessed as incorporation of tritium labeled methyl group from [3H]-SAM to substrate at 1 uM after 1 hr by scintillation proximity assay relative to control.
In test [22] the target is PRMT5/MEP50 complex (Homo sapiens) (UniProt O14744+Q9BQA1). Nature of the test: Inhibition of PRMT5-MEP50 complex (unknown origin) assessed as incorporation of tritium labeled methyl group from [3H]-SAM to substrate at 1 uM after 1 hr by scintillation proximity assay relative to control. Format: protein-complex assay.
In test [23] the target is Histone-lysine N-methyltransferase EHMT2 (Homo sapiens) (UniProt Q96KQ7). The experiment in a line: Inhibition of G9a (unknown origin) assessed as incorporation of tritium labeled methyl group from [3H]-SAM to substrate at 1 uM after 1 hr by scintillation proximity assay relative to control.
Test [24] addresses Histone-lysine N-methyltransferase EZH1 (Homo sapiens) (UniProt Q92800). The experiment in a line: Inhibition of EZH1 pentameric complex (unknown origin) assessed as incorporation of tritium labeled methyl group from [3H]-SAM to substrate at 1 uM after 1 hr by scintillation proximity assay relative to control.
In test [25] the target is Histone-lysine N-methyltransferase EHMT1 (Homo sapiens) (UniProt Q9H9B1). Nature of the test: Inhibition of EHMT1 (unknown origin) assessed as incorporation of tritium labeled methyl group from [3H]-SAM to substrate at 1 uM after 1 hr by scintillation proximity assay relative to control.
Test [26] deals with RNA 5'-monophosphate methyltransferase (Homo sapiens) (UniProt Q7Z5W3). Nature of the test: Inhibition of BCDIN3D (unknown origin) assessed as incorporation of tritium labeled methyl group from [3H]-SAM to substrate at 1 uM after 1 hr by scintillation proximity assay relative to control.
In test [27] the test system is A549. The experiment in a line: Effect on p53 protein level in human A549 cells at 10 uM after 18 hrs. Format: functional, cell-based.
Test [28] has as its target Histone-lysine N-methyltransferase EZH2 (Homo sapiens) (UniProt Q15910). The experiment in a line: Inhibition of EZH2 trimeric complex (unknown origin) assessed as incorporation of tritium labeled methyl group from [3H]-SAM to substrate at 1 uM after 1 hr by scintillation proximity assay relative to control.
Test [29] concerns the target Histone-lysine N-methyltransferase SETD7 (Homo sapiens) (UniProt Q8WTS6). The experiment in a line: Inhibition of SETD7 (unknown origin) assessed as incorporation of tritium labeled methyl group from [3H]-SAM to substrate at 1 uM after 1 hr by scintillation proximity assay relative to control.
For test [30], the target named is Protein arginine N-methyltransferase 1 (Homo sapiens) (UniProt Q99873). Nature of the test: Inhibition of PRMT1 (unknown origin) assessed as incorporation of tritium labeled methyl group from [3H]-SAM to substrate at 1 uM after 1 hr by scintillation proximity assay relative to control.
Test [31] concerns the target N-lysine methyltransferase KMT5A (Homo sapiens) (UniProt Q9NQR1). The experiment in a line: Inhibition of SETD8 (unknown origin) assessed as incorporation of tritium labeled methyl group from [3H]-SAM to substrate at 1 uM after 1 hr by scintillation proximity assay relative to control.
For test [32], the target named is Histone-lysine N-methyltransferase NSD3 (Homo sapiens) (UniProt Q9BZ95). The experiment in a line: Inhibition of NSD3 (unknown origin) at 1 uM after 1 hr by filter-based assay.
In test [33] the target is DNMT3B-DNMT3L complex (Homo sapiens) (UniProt Q9UBC3+Q9UJW3). The experiment in a line: Inhibition of DNMT3B/3L (unknown origin) at 1 uM after 1 hr by filter-based assay. Format: protein-complex assay.
Test [34] concerns the target Histone-lysine N-methyltransferase SETD2 (Homo sapiens) (UniProt Q9BYW2). Nature of the test: Inhibition of SETD2 (unknown origin) assessed as incorporation of tritium labeled methyl group from [3H]-SAM to substrate at 1 uM after 1 hr by scintillation proximity assay relative to control.
The target of test [35] is Histone-lysine N-methyltransferase KMT5B (Homo sapiens) (UniProt Q4FZB7). The experiment in a line: Inhibition of SUV420H1 (unknown origin) assessed as incorporation of tritium labeled methyl group from [3H]-SAM to substrate at 1 uM after 1 hr by scintillation proximity assay relative to control.
Test [36] has as its target Histone-lysine N-methyltransferase SMYD3 (Homo sapiens) (UniProt Q9H7B4). Nature of the test: Inhibition of SMYD3 (unknown origin) assessed as incorporation of tritium labeled methyl group from [3H]-SAM to substrate at 10 to 50 uM after 1 hr by scintillation proximity assay relative to control.
Test [37] concerns the target Histone-lysine N-methyltransferase PRDM9 (Homo sapiens) (UniProt Q9NQV7). Nature of the test: Inhibition of PRDM9 (unknown origin) assessed as incorporation of tritium labeled methyl group from [3H]-SAM to substrate at 1 uM after 1 hr by scintillation proximity assay relative to control.
Test [38] relates to A549. The experiment in a line: Upregulation of p53 protein level in human A549 cells at 10 uM after 18 hrs relative to control. It counts as functional.

pIC50: −log10 of the molar value. Activity calls are given as the source filed them. The rule behind the calls is not given here. Where only a bound is given, the exact number is not on record here.

Chain of Histone-lysine N-methyltransferase SMYD3 (Homo sapiens) (Q9H7B4 whole entry): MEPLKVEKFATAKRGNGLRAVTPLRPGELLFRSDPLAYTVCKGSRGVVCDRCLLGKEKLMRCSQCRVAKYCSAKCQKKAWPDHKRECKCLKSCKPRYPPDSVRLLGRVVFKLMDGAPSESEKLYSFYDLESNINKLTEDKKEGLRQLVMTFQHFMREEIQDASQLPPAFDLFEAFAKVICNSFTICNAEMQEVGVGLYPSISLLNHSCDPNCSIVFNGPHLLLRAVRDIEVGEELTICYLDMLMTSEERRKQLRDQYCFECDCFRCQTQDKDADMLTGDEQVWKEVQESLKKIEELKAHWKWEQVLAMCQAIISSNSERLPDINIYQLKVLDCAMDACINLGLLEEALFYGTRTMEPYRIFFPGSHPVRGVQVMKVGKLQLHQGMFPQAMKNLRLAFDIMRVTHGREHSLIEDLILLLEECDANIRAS
Chain of Histone-lysine N-methyltransferase SETD2 (Homo sapiens) (Q9BYW2 whole entry): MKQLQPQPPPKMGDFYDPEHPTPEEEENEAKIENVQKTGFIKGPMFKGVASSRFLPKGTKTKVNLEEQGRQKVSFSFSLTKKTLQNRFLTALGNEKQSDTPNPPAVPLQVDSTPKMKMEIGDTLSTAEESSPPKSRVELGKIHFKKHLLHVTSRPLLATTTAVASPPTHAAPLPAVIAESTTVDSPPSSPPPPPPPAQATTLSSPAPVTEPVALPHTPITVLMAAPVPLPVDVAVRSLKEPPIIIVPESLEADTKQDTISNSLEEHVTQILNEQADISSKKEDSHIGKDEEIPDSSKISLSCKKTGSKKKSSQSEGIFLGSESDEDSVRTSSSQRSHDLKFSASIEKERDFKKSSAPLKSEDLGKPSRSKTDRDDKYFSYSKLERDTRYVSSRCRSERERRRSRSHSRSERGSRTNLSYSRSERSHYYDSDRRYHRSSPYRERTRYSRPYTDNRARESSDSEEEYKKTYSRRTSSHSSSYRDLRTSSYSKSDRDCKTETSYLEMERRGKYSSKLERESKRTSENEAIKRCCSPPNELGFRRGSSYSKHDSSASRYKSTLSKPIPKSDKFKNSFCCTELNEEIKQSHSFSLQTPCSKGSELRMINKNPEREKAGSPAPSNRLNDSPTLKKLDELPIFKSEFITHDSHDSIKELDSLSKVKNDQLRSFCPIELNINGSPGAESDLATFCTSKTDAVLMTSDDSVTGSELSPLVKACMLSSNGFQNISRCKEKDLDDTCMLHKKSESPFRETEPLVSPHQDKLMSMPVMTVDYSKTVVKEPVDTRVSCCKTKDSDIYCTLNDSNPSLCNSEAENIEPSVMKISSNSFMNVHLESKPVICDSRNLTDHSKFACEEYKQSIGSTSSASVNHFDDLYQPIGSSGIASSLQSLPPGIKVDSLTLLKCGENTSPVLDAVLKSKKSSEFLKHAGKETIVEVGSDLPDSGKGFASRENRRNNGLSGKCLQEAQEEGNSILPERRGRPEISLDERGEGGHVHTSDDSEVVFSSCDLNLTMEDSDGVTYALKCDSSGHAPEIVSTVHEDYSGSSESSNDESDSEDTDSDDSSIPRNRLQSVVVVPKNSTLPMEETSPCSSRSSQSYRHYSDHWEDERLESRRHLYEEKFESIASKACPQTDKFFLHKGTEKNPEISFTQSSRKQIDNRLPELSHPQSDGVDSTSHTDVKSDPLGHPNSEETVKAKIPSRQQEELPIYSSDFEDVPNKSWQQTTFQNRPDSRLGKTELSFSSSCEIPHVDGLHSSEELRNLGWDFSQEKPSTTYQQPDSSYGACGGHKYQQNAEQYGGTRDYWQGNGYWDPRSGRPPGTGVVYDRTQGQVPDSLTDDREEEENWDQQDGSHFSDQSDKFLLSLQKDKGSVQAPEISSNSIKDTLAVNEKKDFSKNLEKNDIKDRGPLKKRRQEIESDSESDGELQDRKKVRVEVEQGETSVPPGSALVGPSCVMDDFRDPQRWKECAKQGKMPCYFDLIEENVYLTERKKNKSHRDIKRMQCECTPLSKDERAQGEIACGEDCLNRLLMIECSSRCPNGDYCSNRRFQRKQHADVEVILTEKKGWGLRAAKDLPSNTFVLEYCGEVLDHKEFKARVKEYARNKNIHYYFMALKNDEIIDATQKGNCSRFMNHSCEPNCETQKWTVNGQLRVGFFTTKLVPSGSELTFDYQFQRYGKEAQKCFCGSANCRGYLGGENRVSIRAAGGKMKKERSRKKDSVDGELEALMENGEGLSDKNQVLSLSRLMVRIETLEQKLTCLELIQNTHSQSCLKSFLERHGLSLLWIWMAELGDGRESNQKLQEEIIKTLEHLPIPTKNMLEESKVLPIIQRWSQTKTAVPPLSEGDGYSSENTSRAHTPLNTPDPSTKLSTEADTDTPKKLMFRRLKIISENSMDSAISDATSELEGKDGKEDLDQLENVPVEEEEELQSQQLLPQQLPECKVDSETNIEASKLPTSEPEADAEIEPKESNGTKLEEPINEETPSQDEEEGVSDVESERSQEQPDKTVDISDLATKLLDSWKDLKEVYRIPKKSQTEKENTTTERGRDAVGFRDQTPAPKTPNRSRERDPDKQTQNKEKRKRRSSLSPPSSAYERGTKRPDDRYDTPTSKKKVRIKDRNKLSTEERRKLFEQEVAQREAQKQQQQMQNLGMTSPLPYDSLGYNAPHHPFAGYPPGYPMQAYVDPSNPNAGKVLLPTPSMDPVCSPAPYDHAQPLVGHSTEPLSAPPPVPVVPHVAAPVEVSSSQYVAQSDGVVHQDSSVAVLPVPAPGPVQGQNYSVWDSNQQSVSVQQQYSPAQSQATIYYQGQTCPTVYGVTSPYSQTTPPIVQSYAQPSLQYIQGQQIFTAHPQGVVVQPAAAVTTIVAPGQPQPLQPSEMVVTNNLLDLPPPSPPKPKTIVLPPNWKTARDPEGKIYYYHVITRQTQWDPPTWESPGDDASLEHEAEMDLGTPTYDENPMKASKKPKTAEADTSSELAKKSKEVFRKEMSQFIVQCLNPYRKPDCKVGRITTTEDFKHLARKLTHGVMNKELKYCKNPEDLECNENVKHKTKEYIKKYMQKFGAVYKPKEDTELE

`O=C(CCNCCc1ccc(Cl)c(Cl)c1)N(CCNCCCN1CCCCC1)C1CCCCC1`: the pIC50 in test [1] was 5.62.
Consider `O=C1COc2c(CCNCCN(C(=O)CCNCCc3ccccc3)C3CCCC3)ccc(O)c2N1`, for which the pIC50 in test [1] was 5.66.
The same measure, in the same setting: for `O=C(CCNCCc1ccc(Cl)c(Cl)c1)N(CCNCCN1CCCC1)C1CCCCC1` the value was 5.30; for `O=C1COc2c(CCNCCN(C(=O)CCNCc3ccc(Cl)c(Cl)c3)C3CCCCC3)ccc(O)c2N1`, 5.51; for `O=C1COc2c(cccc2[C@H](O)CNCCN(C(=O)CCNCCc2ccc(Cl)c(Cl)c2)C2CCCCC2)N1`, 8.25.
`O=C(CCNCCc1ccc(Cl)c(Cl)c1)N(CCNCCCN1CCCC1)C1CCCCC1`: in [1], the pIC50 was 5.85.
On the same count and under the same terms, for `O=C1COc2c(CCNCCN(C(=O)CCNCCc3ccccc3)C3CCCCC3)ccc(O)c2N1` the value was 6.36.
Still for that read-out and setting: for `O=C1COc2c(CCNCCN(C(=O)CCNCCc3ccccc3)C3CCC3)ccc(O)c2N1` the value was 4.59.
`O=C1COc2c(cccc2[C@@H](O)CNCCN(C(=O)CCNCCc2ccc(Cl)c(Cl)c2)C2CCCCC2)N1`: the inhibition result in [2], in test [4], in test [5], in [6], in test [7] and in test [9] was “inactive” throughout. Moreover, the inhibition entry in [10], in test [11], in test [12], in test [13], in [14] and in test [16] was “inactive” each time. The inhibition entry in test [17], in test [18], in [19], in test [20], in test [21] and in test [22] was “inactive” throughout. The inhibition entry in test [23], in [24], in [25], in [26], in test [28] and in [29] was “inactive” throughout. Also, the inhibition result in test [30], in [31], in [32], in test [33], in [34] and in test [35] was “inactive” each time. The inhibition result in [37] was “inactive”. For the same molecule, the inhibition in test [3], in [8], in test [15] and in [36] was 65% each time. Besides, the result in test [27] was inactive. In test [1], this molecule gave a pIC50 of 8.55.
In turn, `O=C1COc2c(CCNCCN(C(=O)CCNCCc3ccc(Cl)c(Cl)c3)C3CCCCC3)ccc(O)c2N1` gave a negative logarithm of the IC50 (pIC50) in test [1] of 6.64. For the same molecule, the “fold change (FC)” value in test [38] is >3.
